Results taken from patent US8148391B2 (Cephalon, Inc., priority 2006, dated 2012).
Like-named read-outs stand apart in the source and are kept apart here. One block for each compound: values may come before it.

Key:
[1] = biological target: T1, c-Met (cytoplasmic domain) (Homo sapiens, UniProt P08581); test: c-Met Kinase Assay (same methods as for ALK, with modifications); format: biochemical
T1 construct: 10 ng/mL c-Met (cytoplasmic domain, Invitrogen Corporation #PV3143); purchased Invitrogen Corporation PV3143
T1 sequence (P08581 956-1390 limits assumed): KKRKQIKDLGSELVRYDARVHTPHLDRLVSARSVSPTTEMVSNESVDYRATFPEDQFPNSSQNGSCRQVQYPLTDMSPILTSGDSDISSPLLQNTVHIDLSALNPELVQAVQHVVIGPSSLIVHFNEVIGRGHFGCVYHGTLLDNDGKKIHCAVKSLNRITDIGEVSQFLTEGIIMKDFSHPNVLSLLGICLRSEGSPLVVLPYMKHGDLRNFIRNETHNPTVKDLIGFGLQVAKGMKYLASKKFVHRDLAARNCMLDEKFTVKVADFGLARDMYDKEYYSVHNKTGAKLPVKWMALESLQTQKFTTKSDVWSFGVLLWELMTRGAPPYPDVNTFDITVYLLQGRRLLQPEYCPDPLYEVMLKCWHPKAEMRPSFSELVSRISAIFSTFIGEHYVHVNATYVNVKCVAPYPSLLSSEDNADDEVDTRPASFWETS
Outline: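 Wells were coated with 10 μg/mL phospholipase C-γ substrate in TBS, and reactions were started with 10 ng/mL c-Met cytoplasmic domain and run at 37° C for 15 minutes. Phosphorylated product was detected with Eu-N1-labeled PT66 antibody. IC50 values came from sigmoidal variable-slope fits of percent inhibition versus log compound concentration.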

[2] = biological target: T2, baculovirus-expressed ALK (Homo sapiens, UniProt Q9UM73); test: ALK Kinase Assay (ELISA-type, time-resolved fluorescence); format: biochemical
T2 construct: host or cells: baculovirus expression system
T2 sequence (Q9UM73 19-1620): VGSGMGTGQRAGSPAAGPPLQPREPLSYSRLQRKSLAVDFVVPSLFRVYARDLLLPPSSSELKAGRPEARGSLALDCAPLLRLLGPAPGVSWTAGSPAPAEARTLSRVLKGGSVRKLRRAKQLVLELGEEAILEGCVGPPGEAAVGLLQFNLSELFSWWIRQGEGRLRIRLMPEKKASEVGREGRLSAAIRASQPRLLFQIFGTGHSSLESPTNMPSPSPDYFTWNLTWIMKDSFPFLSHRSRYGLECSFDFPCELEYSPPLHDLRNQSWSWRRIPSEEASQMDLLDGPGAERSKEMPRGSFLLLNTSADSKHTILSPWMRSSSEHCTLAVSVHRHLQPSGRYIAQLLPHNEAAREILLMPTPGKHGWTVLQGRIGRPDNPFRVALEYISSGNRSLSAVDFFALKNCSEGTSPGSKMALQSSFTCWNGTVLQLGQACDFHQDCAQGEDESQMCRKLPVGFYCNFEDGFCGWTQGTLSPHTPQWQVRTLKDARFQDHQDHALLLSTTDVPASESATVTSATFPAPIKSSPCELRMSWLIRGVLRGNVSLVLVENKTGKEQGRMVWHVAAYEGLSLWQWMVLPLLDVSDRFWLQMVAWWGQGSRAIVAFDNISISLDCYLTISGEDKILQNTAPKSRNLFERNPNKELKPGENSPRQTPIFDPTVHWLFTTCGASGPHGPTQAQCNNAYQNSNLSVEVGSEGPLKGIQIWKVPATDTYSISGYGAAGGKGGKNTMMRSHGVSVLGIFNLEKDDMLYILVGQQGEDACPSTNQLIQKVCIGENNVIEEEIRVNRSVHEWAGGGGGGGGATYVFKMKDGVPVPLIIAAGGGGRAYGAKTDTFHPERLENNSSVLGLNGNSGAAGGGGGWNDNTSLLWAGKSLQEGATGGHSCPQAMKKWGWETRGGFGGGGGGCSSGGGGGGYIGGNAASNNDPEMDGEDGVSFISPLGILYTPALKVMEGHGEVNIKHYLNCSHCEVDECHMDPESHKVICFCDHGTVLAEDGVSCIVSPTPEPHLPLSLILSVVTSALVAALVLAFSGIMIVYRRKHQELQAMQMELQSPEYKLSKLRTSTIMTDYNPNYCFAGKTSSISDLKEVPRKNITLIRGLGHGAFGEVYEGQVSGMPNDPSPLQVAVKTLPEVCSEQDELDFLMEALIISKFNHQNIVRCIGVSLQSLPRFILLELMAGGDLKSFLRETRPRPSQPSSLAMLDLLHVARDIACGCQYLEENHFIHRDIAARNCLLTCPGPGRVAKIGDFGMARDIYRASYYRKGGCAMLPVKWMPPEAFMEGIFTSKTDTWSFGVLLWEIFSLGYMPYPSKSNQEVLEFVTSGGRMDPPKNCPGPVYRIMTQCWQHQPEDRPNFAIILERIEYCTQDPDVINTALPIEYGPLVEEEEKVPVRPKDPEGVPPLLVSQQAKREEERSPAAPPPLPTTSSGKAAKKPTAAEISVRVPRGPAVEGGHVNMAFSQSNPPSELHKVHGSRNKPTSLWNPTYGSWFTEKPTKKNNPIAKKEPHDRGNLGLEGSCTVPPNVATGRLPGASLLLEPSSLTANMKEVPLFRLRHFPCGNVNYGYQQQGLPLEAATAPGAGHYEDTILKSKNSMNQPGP
Outline: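 Substrate coating: phospholipase C-γ, 10 μg/mL in TBS. Kinase step: 30 ng/ml ALK, 15 min, 37° C. Detection and analysis: Eu-N1 PT66 antibody, with IC50 fitted as a sigmoidal variable-slope dose-response curve.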

[3] = c-Met kinase inhibition, 1 μM ATP (Km level), read-out: cMet Activity
[4] = ALK kinase inhibition, 1 μM ATP (Km level), read-out: ALK Activity
[5] = c-Met kinase inhibition, 1 μM ATP, read-out: cMet Activity
[6] = ALK kinase inhibition, 1 μM ATP, read-out: ALK Activity
[7] = 1 μM ATP (Km level), 10 ng/mL c-Met, read-out: cMet Activity (c-Met kinase inhibition, IC50 class)
[8] = 1 μM ATP (Km level), 30 ng/ml ALK, 37° C., 15 minutes, read-out: ALK Activity (ALK kinase inhibition, IC50 class)
[9] = 1 μM ATP (Km level), read-out: cMet Activity (c-Met Kinase Inhibition, IC50)
[10] = 1 μM ATP (Km level), read-out: ALK Activity (ALK Kinase Inhibition, IC50)

IC50 [1, 3]: < 0.1 µM
IC50 [2, 4]: 0.1 to 1 µM
Compound: CNC(=O)c1ccccc1Nc1nc(Nc2ccc3c(c2)C2CN(S(C)(=O)=O)CC3O2)ncc1Cl (centres unmarked) [Example 64, 2-[5-Chloro-2-(10-methanesulfonyl-12-oxa-10-aza-tricyclo[6.3.1.0*2,7*]dodeca-2(7),3,5-trien-4-ylamino)-pyrimidin-4-ylamino]-N-methyl-benzamide]

IC50 [1, 5]: > 10 µM
IC50 [2, 6]: 0.1 to 1 µM
Compound: COc1cc(N2CCOCC2)ccc1Nc1nc(Nc2ccc3c(c2)NCCCC3(C)C)ncc1Cl [Example 1614, 5-Chloro-N*2*-(5,5-dimethyl-2,3,4,5-tetrahydro-1H-benzo[b]azepin-8-yl)-N*4*-(2-methoxy-4-morpholin-4-yl-phenyl)-pyrimidine-2,4-diamine]

IC50 [1, 7]: 1 to 10 µM
IC50 [2, 8]: 1 to 10 µM
Compound: COCCN1CCc2ccc(Nc3ncc(Cl)c(Nc4c(OC)cccc4C(=O)NCCC#N)n3)cc2CC1 [Example 1060, 2-{5-Chloro-2-[3-(2-methoxy-ethyl)-2,3,4,5-tetrahydro-1H-benzo[d]azepin-7-ylamino]-pyrimidin-4-ylamino}-N-(2-cyano-ethyl)-3-methoxy-benzamide]

IC50 [1, 5]: < 0.1 µM
IC50 [2, 6]: < 0.1 µM
Compound: CNC(=O)c1ccccc1Nc1nc(Nc2ccc3c(c2)NC(=O)CN(CCOC)C3)ncc1Cl [Example 1864, 2-{5-Chloro-2-[4-(2-methoxy-ethyl)-2-oxo-2,3,4,5-tetrahydro-1H-benzo[e][1,4]diazepin-8-ylamino]-pyrimidin-4-ylamino}-N-methyl-benzamide]

IC50 [1, 5]: 0.1 to 1 µM
IC50 [2, 6]: 0.1 to 1 µM
Compound: C#CCNC(=O)c1cccc(F)c1Nc1nc(Nc2ccc3c(c2)N(CC)CCCC3(C)C)ncc1Cl [Example 1633, 2-[5-Chloro-2-(1-ethyl-5,5-dimethyl-2,3,4,5-tetrahydro-1H-benzo[b]azepin-8-ylamino)-pyrimidin-4-ylamino]-3-fluoro-N-prop-2-ynyl-benzamide]

IC50 [1, 5]: < 0.1 µM
IC50 [2, 6]: 0.1 to 1 µM
Compound: C#CCNC(=O)c1cccc(F)c1Nc1nc(Nc2ccc3c(c2)N(C(C)=O)CCCC3(C)C)ncc1Cl [Example 1602, 2-[2-(1-Acetyl-5,5-dimethyl-2,3,4,5-tetrahydro-1H-benzo[b]azepin-8-ylamino)-5-chloro-pyrimidin-4-ylamino]-3-fluoro-N-prop-2-ynyl-benzamide]

IC50 [1, 9]: > 10 µM
IC50 [2, 10]: < 0.1 µM
Compound: CNC(=O)c1ccccc1Nc1nc(Nc2cccc3c2N(C)CCNC3=O)ncc1Cl [Example 544, 2-[5-Chloro-2-(1-methyl-5-oxo-2,3,4,5-tetrahydro-1H-benzo[e][1,4]diazepin-9-ylamino)pyrimidin-4-ylamino]-N-methyl-benzamide]

IC50 [1, 5]: < 0.1 µM
IC50 [2, 6]: < 0.1 µM
Compound: C#CCNC(=O)c1cccc(F)c1Nc1nc(Nc2ccc3c(c2)OCCCN3CCN2CCCC2)ncc1Cl [Example 1719, 2-{5-Chloro-2-[9-(2-pyrrolidin-1-yl-ethyl)-6,7,8,9-tetrahydro-5-oxa-9-aza-benzocyclohepten-3-ylamino]-pyrimidin-4-ylamino}-3-fluoro-N-prop-2-ynyl-benzamide]

IC50 [1, 7]: 0.1 to 1 µM
IC50 [2, 8]: 0.1 to 1 µM
Compound: COCCN1CCc2ccc(Nc3ncc(Cl)c(Nc4c(F)cccc4OC4CCOC4)n3)cc2CC1 (centres unmarked) [Example 1274, 5-Chloro-N(4)-[2-fluoro-6-(tetrahydro-furan-3-yloxy)-phenyl]-N(2)-[3-(2-methoxy-ethyl)-2,3,4,5-tetrahydro-1H-3-benzazepin-7-yl]-pyrimidine-2,4-diamine]

The remaining lines, values behind:

Compound: COCCN1CCc2ccc(Nc3ncc(Cl)c(Nc4ccccc4OC)n3)cc2CC1 [Example 145, 5-Chloro-N*2*-[3-(2-methoxy-ethyl)-2,3,4,5-tetrahydro-1H-benzo[d]azepin-7-yl]-N*4*-(2-methoxy-phenyl)-pyrimidine-2,4-diamine]
IC50 [1, 3]: 1 to 10 µM
IC50 [2, 4]: < 0.1 µM

Compound: COc1cc2c(cc1Nc1ncc(Cl)c(Nc3ccccc3S(=O)(=O)N(C)C)n1)CCN(CCN1CCOCC1)C(=O)C2 [Example 1195, 2-{5-Chloro-2-[8-methoxy-3-(2-morpholin-4-yl-ethyl)-2-oxo-2,3,4,5-tetrahydro-1H-benzo[d]azepin-7-ylamino]-pyrimidin-4-ylamino}-N,N-dimethyl-benzenesulfonamide]
IC50 [1, 7]: 1 to 10 µM
IC50 [2, 8]: < 0.1 µM

Compound: COCCNC1CCc2ccc(Nc3ncc(Cl)c(N[C@@H]4CCCC[C@H]4NS(C)(=O)=O)n3)c(OC)c2CC1 (single isomer, unassigned) [Example 694]
IC50 [1, 9]: > 10 µM
IC50 [2, 10]: < 0.1 µM

Compound: COc1cc2c(cc1Nc1ncc(Cl)c(N[C@@H]3CCCC[C@H]3NS(C)(=O)=O)n1)CCC(NCC(F)F)CC2 (single isomer, unassigned) [Example 1057]
IC50 [1, 7]: > 10 µM
IC50 [2, 8]: < 0.1 µM

Compound: COc1c(Nc2ncc(Cl)c(N[C@@H]3CCCC[C@H]3NS(C)(=O)=O)n2)ccc2c1CCC(NCCO)CC2 (single isomer, unassigned) [Example 699]
IC50 [1, 9]: > 10 µM
IC50 [2, 10]: < 0.1 µM

Compound: CN1C(=O)CCCc2cc(Nc3ncc(Cl)c(Nc4ccccc4-c4nc(C(F)(F)F)c[nH]4)n3)ccc21 [Example 1013, 7-{5-Chloro-4-[2-(4-trifluoromethyl-1H-imidazol-2-yl)-phenylamino]-pyrimidin-2-ylamino}-1-methyl-1,3,4,5-tetrahydro-benzo[b]azepin-2-one]
IC50 [1, 9]: 1 to 10 µM
IC50 [2, 10]: 0.1 to 1 µM

Compound: COCCN1CCc2ccc(Nc3ncc(Cl)c(Nc4ccccc4S(=O)(=O)N(C)C)n3)cc2CC1 [Example 1686, 2-{5-Chloro-2-[3-(2-methoxy-ethyl)-2,3,4,5-tetrahydro-1H-benzo[d]azepin-7-ylamino]-pyrimidin-4-ylamino}-N,N-dimethyl-benzenesulfonamide]
IC50 [1, 5]: 0.1 to 1 µM
IC50 [2, 6]: < 0.1 µM

Compound: COc1cc(N2CCN(C)CC2)ccc1Nc1nc(Nc2ccc3c(c2)CCCC(=O)N3C(C)C)ncc1Cl [Example 674, 7-{5-Chloro-4-[2-methoxy-4-(4-methyl-piperazin-1-yl)-phenylamino]-pyrimidin-2-ylamino}-1-isopropyl-1,3,4,5-tetrahydro-benzo[b]azepin-2-one]
IC50 [1, 9]: 1 to 10 µM
IC50 [2, 10]: < 0.1 µM

Compound: CNC(=O)c1ccccc1Nc1nc(Nc2ccc3c(c2Cl)C2CCC(C3)N2)ncc1Cl (centres unmarked) [Example 81, 2-[5-Chloro-2-(3-chloro-12-aza-tricyclo[7.2.1.0*2,7*]dodeca-2(7),3,5-trien-4-ylamino)-pyrimidin-4-ylamino]-N-methyl-benzamide]
IC50 [1, 3]: 0.1 to 1 µM
IC50 [2, 4]: < 0.1 µM

Compound: CCN1CCc2ccc(Nc3ncc(Cl)c(NCC(C)NS(C)(=O)=O)n3)cc2CC1 (centres unmarked) [Example 300, N-{2-[5-Chloro-2-(3-ethyl-2,3,4,5-tetrahydro-1H-benzo[d]azepin-7-ylamino)-pyrimidin-4-ylamino]-1-methyl-ethyl}-methanesulfonamide]
IC50 [1, 3]: 1 to 10 µM
IC50 [2, 4]: 0.1 to 1 µM

Compound: COc1cc2c(cc1Nc1ncc(Cl)c(Nc3cc(Cl)ccc3OC)n1)CCN(CC(C)(F)F)CC2 [Example 785, 5-Chloro-N*4*-(5-chloro-2-methoxy-phenyl)-N*2*-[3-(2,2-difluoro-propyl)-8-methoxy-2,3,4,5-tetrahydro-1H-benzo[d]azepin-7-yl]-pyrimidine-2,4-diamine]
IC50 [1, 9]: > 10 µM
IC50 [2, 10]: 0.1 to 1 µM

Compound: CCOc1ccccc1Nc1nc(Nc2cc3c(cc2OC)CCN(CC(=O)N(C)C)CC3)ncc1Cl [Example 1144, 2-{7-[5-Chloro-4-(2-ethoxy-phenylamino)-pyrimidin-2-ylamino]-8-methoxy-1,2,4,5-tetrahydro-benzo[d]azepin-3-yl}-N,N-dimethyl-acetamide]
IC50 [1, 7]: > 10 µM
IC50 [2, 8]: < 0.1 µM

Compound: COc1ccc2c(c1Nc1ncc(Cl)c(N[C@@H]3CCCC[C@H]3NS(C)(=O)=O)n1)CCC(N1CCOCC1)CC2 (stereo partly drawn) [Example 1070, N-{(1R,2R)-2-[5-Chloro-2-(2-methoxy-7-morpholin-4-yl-6,7,8,9-tetrahydro-5H-benzocyclohepten-1-ylamino)-pyrimidin-4-ylamino]-cyclohexyl}-methanesulfonamide]
IC50 [1, 7]: > 10 µM
IC50 [2, 8]: 0.1 to 1 µM

Compound: CCN1CCN(CC)c2cc(Nc3ncc(Cl)c(Nc4ccccc4NS(C)(=O)=O)n3)c(Cl)cc2C1 [Example 431, N-{2-[5-Chloro-2-(7-chloro-1,4-diethyl-2,3,4,5-tetrahydro-1H-benzo[e][1,4]diazepin-8-ylamino)-pyrimidin-4-ylamino]-phenyl}-methanesulfonamide]
IC50 [1, 3]: 1 to 10 µM
IC50 [2, 4]: < 0.1 µM

Compound: CNC(=O)[C@@H]1CCC[C@@H]1Nc1nc(Nc2cc3c(cc2OC)CCN(CC(=O)N(C)C)CC3)ncc1Cl (relative stereo) [Example 375, cis-2-[5-Chloro-2-(3-dimethylcarbamoylmethyl-8-methoxy-2,3,4,5-tetrahydro-1H-benzo[d]azepin-7-ylamino)-pyrimidin-4-ylamino]-cyclopentanecarboxylic acid methylamide]
IC50 [1, 3]: > 10 µM
IC50 [2, 4]: < 0.1 µM

Compound: Cc1ccnc(-c2ccccc2Nc2nc(Nc3ccc4c(c3)CCCC(=O)N4C)ncc2Cl)c1 [Example 1002, 7-{5-Chloro-4-[2-(4-methyl-pyridin-2-yl)-phenylamino]-pyrimidin-2-ylamino}-1-methyl-1,3,4,5-tetrahydro-benzo[b]azepin-2-one]
IC50 [1, 9]: 0.1 to 1 µM
IC50 [2, 10]: 0.1 to 1 µM
